We go through 7 molecules from US20240246966A1, “NEW PYRAZOLO[1,5-a] PYRIMIDINE DERIVATIVES AS SIGMA LIGANDS” (ACONDICIONAMIENTO TARRASENSE, priority 2021, published 2024).

Bounds are passed on as bounds.

The test system of experiment [1] is mechanical hypersensitivity in SNI mice. Particulars: spared nerve injury (SNI) mice model of neuropathic pain; cited from earlier work.
The next experiment has as its target sigma-2 (σ2) site (Homo sapiens, UniProt Q5BJF2). Particulars: background statement; cited from earlier work.
A further experiment addresses T1, Human σ1 Receptor (Homo sapiens, UniProt Q99720).
T1 construct: expressed in transfected cells; host or cells: HEK-293
The experiment in a line: Human σ1 receptor radioligand assay ([3H](+)-pentazocine, transfected HEK-293 membranes). Particulars: human σ1, [3H](+)-pentazocine 5 nM, binding expressed as Ki, read-out: Binding σ-1. On the procedure:
Human σ1 Receptor Radioligand Assay
Transfected HEK-293 membranes (7 μg) were incubated with 5 nM of [^3H](+)-pentazocine in assay buffer containing Tris-HCl 50 mM at pH 8. NBS (non-specific binding) was measured by adding 10 μM haloperidol. The binding of the test compound was measured at either one concentration (% inhibition at 1 or 10 μM) or five different concentrations to determine affinity values (Ki). Plates were incubated at 37° C. for 120 minutes. After the incubation period, the reaction mix was then transferred to MultiScreen HTS, FC plates (Millipore), filtered and plates were washed 3 times with ice-cold 10 mM Tris-HCL (pH 7.4). Filters were dried and counted at approximately 40% efficiency in a MicroBeta scintillation counter (Perkin-Elmer) using EcoScint liquid scintillation cocktail.

A further experiment concerns the target T2, Human σ2/TMEM97 receptor (Homo sapiens, UniProt Q5BJF2).
T2 construct: expressed in transfected cells; host or cells: HEK-293
The experiment in a line: Binding assay to human σ2/TMEM97 receptor ([3H]-DTG, transfected HEK-293 membranes). Particulars: human σ2/TMEM97, [3H]-DTG 10 nM, binding expressed as Ki, read-out: Binding σ-2. On the procedure: Binding Assay to Human ρ2/TMEM97 Receptor
Transfected HEK-293 membranes (15 μg) were incubated with 10 nM [^3H]-1,3-Di-o-tolylguanidine ( DTG) in assay buffer containing Tris-HCl 50 mM at pH 8.0. NSB (non-specific binding) was measured by adding 10 μM haloperidol. The binding of the test compound was measured at either one concentration (% inhibition at 1 or 10 μM) or five different concentrations to determine affinity values (Ki). Plates were incubated at 25° C. for 120 minutes. After the incubation period, the reaction mix was transferred to MultiScreen HTS, FC plates (Millipore), filtered and washed 3 times with ice-cold 10 mM Tris-HCL (pH 8.0). Filters were dried and counted at approximately 40% efficiency in a MicroBeta scintillation counter (Perkin-Elmer) using EcoScint liquid scintillation cocktail.

T1 sequence (Q99720 whole entry): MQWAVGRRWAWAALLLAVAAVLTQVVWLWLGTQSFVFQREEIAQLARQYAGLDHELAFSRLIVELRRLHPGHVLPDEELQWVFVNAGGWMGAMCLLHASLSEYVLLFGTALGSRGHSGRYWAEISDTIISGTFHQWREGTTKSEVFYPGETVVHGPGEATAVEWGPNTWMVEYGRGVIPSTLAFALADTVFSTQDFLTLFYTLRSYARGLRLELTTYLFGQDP
T2 sequence (Q5BJF2 whole entry): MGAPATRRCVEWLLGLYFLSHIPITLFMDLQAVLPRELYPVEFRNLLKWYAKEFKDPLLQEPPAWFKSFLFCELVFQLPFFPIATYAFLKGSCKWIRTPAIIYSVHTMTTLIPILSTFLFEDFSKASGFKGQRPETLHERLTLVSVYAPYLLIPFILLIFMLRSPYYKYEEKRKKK
Chain of sigma-2 (σ2) site (Q5BJF2 whole entry): as above

As for UKH-1114, the mechanical hypersensitivity result in experiment [1] is on record as “relieved mechanical hypersensitivity”.

Regarding (+)-SKF-10047, the “affinity for the sigma-2 (σ2) site” value at sigma-2 (σ2) site is listed as “micromolar affinity”. Take `FC(F)(F)c1cc(-c2cnn3cc(CN4CCC5(CCOC5)CC4)cnc23)ccn1` [Example 10, 8-((3-(2-(Trifluoromethyl)pyridin-4-yl)pyrazolo[1,5-a]pyrimidin-6-yl)methyl)-2-oxa-8-azaspiro[4.5]decane]: the Ki was less than 0.1 µM on Human σ1 Receptor and more than 1 µM on Human σ2/TMEM97 receptor. The corresponding values for `FC(F)(F)c1cc(-n2ncc3cc(CN4CCC5(CC4)COC5)cnc32)ccn1` [Example 58, 7-((1-(2-(Trifluoromethyl)pyridin-4-yl)-1H-pyrazolo[3,4-b]pyridin-5-yl)methyl)-2-oxa-7-azaspiro[3.5]nonane] are less than 0.1 µM and 0.1 to 0.5 µM. The corresponding values for `FC(F)(F)c1ccc(-n2ccc3cc(CN4CCCOCC4)cnc32)cn1` [Example 52, 4-((1-(6-(Trifluoromethyl)pyridin-3-yl)-1H-pyrrolo[2,3-b]pyridin-5-yl)methyl)-1,4-oxazepane] are less than 0.1 µM and 0.5 to 1 µM. On the same counts, the results for `FC(F)(F)c1cc(-n2ccc3cc(CN4CCCOCC4)cnc32)ccn1` [Example 50, 4-((1-(2-(Trifluoromethyl)pyridin-4-yl)-1H-pyrrolo[2,3-b]pyridin-5-yl)methyl)-1,4-oxazepane] are less than 0.1 µM and more than 1 µM. In the case of `Cc1cc(-c2cnn3cc(CN4CCC5(CC4)COC5)cnc23)ccn1` [Example 15, 7-((3-(2-Methylpyridin-4-yl)pyrazolo[1,5-a]pyrimidin-6-yl)methyl)-2-oxa-7-azaspiro[3.5]nonane], the Ki on Human σ1 Receptor is less than 0.1 µM; at Human σ2/TMEM97 receptor, more than 1 µM.
